Source: ChEMBL document CHEMBL3763037 (J Med Chem, 2016)
Each block holds one molecule with its values, some of them ahead of it. Active and inactive are the calls of the source. The calls are words filed in the database; no cut-off is given here.

Experiments:
Mus musculus [1] = test: Decrease in PAR level in athymic nu/nu mouse xenografted with human MX1 cells at 1 mg/kg, po administered as single dose measured after 2 ,8 and 24 hrs by ELISA; assay type: functional, organism-based
Mus musculus [2] = test: Decrease in PAR level in athymic nu/nu mouse xenografted with human MX1 cells at 100 mg/kg, po measured after 24 hrs by ELISA; assay type: functional, organism-based
MX1 [3] = test: Antitumor activity against BRCA1 deficient human MX1 cells xenografted in athymic nu/nu mouse at 0.33 mg/kg, po qd administered for 28 days; assay type: functional, organism-based
MX1 [4] = test: Antitumor activity against BRCA1 deficient human MX1 cells xenografted in athymic nu/nu mouse at 0.1 mg/kg, po qd administered for 21 days; assay type: functional, organism-based
MX1 [5] = test: Antitumor activity against BRCA1 deficient human MX1 cells xenografted in athymic nu/nu mouse assessed as tumor growth inhibition at 0.165 mg/kg, po administered twice a day for 28 days; assay type: functional, organism-based
MX1 [6] = test: Potentiation of cisplatin-induced tumor growth inhibition of BRCA1 deficient human MX1 cells xenografted in po dosed athymic nu/nu mouse drug administered for 8 days and animals were treated with cisplatin at 6 mg/kg, ip on day 3; assay type: functional, organism-based
MX1 [7] = test: Potentiation of carboplatin-induced tumor growth inhibition of BRCA1 deficient human MX1 cells xenografted in athymic nu/nu mouse at 0.33 mg/kg po and animals were treated with carboplatin at 35 mg/kg, ip on day 1; assay type: functional, organism-based
[8] = (§1) Oral bioavailability in Sprague-Dawley rat at 10 mg/kg by LC-MS/MS analysis; assay type: ADME, organism-based; details: Sprague-Dawley, in vivo
[9] = (§2) AUC in Sprague-Dawley rat at 10 mg/kg, po by LC-MS/MS analysis; assay type: ADME, organism-based; details: Sprague-Dawley, in vivo
[10] = Cmax in Sprague-Dawley rat at 10 mg/kg, po by LC-MS/MS analysis; assay type: ADME, organism-based; parameters: dose 10 mg/kg, route oral; details: in vivo
[11] = Volume of distribution at steady state in Sprague-Dawley rat at 5 mg/kg, iv by LC-MS/MS analysis; assay type: ADME, organism-based; details: in vivo, read-out: Vdss
[12] = Clearance in Sprague-Dawley rat at 5 mg/kg, iv by LC-MS/MS analysis; assay type: ADME, organism-based; details: in vivo
Rattus norvegicus [13] = test: (§3) Terminal eliminational half life in Sprague-Dawley rat at 5 mg/kg, iv by LC-MS/MS analysis; assay type: ADME, organism-based; details: in vivo
CYP2C19 = CYP2C19 (Homo sapiens, UniProt P33261); test: Inhibition of CYP2C19 (unknown origin) at 10 uM; assay type: ADME
[14] = biological target: Voltage-gated inwardly rectifying potassium channel KCNH2 (Homo sapiens, UniProt Q12809); test: Inhibition of human ERG by cell based assay
[15] = Plasma protein binding in human; assay type: ADME, cell-free; details: read-out: PPB (converted)
CYP2C9 = CYP2C9 (Homo sapiens, UniProt P11712); test: Inhibition of CYP2C9 (unknown origin) at 10 uM; assay type: ADME
CYP2D6 = CYP2D6 (Homo sapiens, UniProt P10635); test: Inhibition of CYP2D6 (unknown origin) at 10 uM; assay type: ADME
CYP3A4 = CYP3A4 (Homo sapiens, UniProt P08684); test: Inhibition of CYP3A4 (unknown origin) at 10 uM; assay type: ADME
CYP1A2 = biological target: T1, CYP1A2 (Homo sapiens, UniProt P05177); test: Inhibition of CYP1A2 (unknown origin) at 10 uM; assay type: ADME
T1 sequence (P05177 whole entry): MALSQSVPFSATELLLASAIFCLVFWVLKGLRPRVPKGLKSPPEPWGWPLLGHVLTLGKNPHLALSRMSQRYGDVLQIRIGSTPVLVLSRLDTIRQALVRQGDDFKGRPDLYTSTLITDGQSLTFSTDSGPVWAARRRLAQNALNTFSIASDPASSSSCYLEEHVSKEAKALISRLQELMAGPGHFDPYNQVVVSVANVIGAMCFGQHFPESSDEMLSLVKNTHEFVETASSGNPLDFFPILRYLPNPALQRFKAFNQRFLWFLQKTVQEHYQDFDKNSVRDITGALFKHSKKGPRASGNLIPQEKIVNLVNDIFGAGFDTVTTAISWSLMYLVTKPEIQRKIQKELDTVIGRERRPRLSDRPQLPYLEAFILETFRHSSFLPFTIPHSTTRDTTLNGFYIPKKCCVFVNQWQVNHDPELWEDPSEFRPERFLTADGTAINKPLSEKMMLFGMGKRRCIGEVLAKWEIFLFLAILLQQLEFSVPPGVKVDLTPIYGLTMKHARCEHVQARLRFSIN

Salmonella typhimurium = test: Mutagenicity in Salmonella typhimurium at 5 mg by Ames test; assay type: toxicity, organism-based, Salmonella enterica subsp. enterica serovar Typhimurium; details: in vivo
[16] = Half life in beagle dog at 0.1 mg/kg, po; assay type: ADME, organism-based, Canis lupus familiaris; details: in vivo
[17] = Cytotoxicity against BRCA2-deficient human Capan1 cells; assay type: functional, cell-based, CAPAN-1; details: Homo sapiens, CAPAN-1
MRC5 = test: Cytotoxicity against human MRC5 cells; assay type: cell-based; details: Homo sapiens, MRC5
[18] = AUC (0 to t) in beagle dog at 0.1 mg/kg, po; assay type: ADME, organism-based, Canis lupus familiaris; details: in vivo
[19] = AUC (0 to infinity) in beagle dog at 0.1 mg/kg, po; assay type: ADME, organism-based, Canis lupus familiaris; parameters: dose 0.1 mg/kg, route oral, time infinity; details: in vivo
[20] = Cmax in beagle dog at 0.1 mg/kg, po; assay type: ADME, organism-based, Canis lupus familiaris; parameters: dose 0.1 mg/kg, route oral; details: in vivo
[21] = Tmax in beagle dog at 0.1 mg/kg, po; assay type: ADME, organism-based, Canis lupus familiaris; details: in vivo
Canis familiaris [22] = test: Clast in beagle dog at 0.1 mg/kg, po; assay type: ADME, organism-based, Canis lupus familiaris; details: in vivo
[23] = Apparent oral clearance in beagle dog at 0.1 mg/kg, po; assay type: ADME, organism-based, Canis lupus familiaris; details: in vivo
[24] = Absolute oral bioavailability in beagle dog at 0.1 mg/kg; assay type: ADME, organism-based, Canis lupus familiaris; details: in vivo
[25] = Half life in human; assay type: ADME, organism-based; details: in vivo
Mus musculus [26] = test: Toxicity in athymic nu/nu mouse assessed as mortality at 0.1 to 0.33 mg/kg, po qd for 28 days; assay type: organism-based; details: in vivo, 672 h
Mus musculus [27] = test: Toxicity in athymic nu/nu mouse assessed as change in body weight at 0.1 to 0.33 mg/kg, po qd for 28 days; assay type: organism-based; details: in vivo, 672 h
LoVo [28] = test: cells; details: Homo sapiens, 120 h
[29] = as §3; assay type: ADME, organism-based; details: Sprague-Dawley, in vivo, read-out: beta t1/2 (converted)
Mus musculus [30] = test: Decrease in PAR level in athymic nu/nu mouse xenografted with human MX1 cells at 100 mg/kg, po measured after 2 and 8 hrs by ELISA; assay type: functional, organism-based
MX1 [31] = test: Antitumor activity against BRCA1 deficient human MX1 cells xenografted in athymic nu/nu mouse at 100 mg/kg, po qd; assay type: functional, organism-based
LoVo [32] = test system: LoVo
Rattus norvegicus [33] = test: as §1; assay type: ADME, organism-based; details: in vivo
Rattus norvegicus [34] = test: as §2; assay type: ADME, organism-based; details: in vivo
[35] = biological target: Poly [ADP-ribose] polymerase 1 (Homo sapiens, UniProt P09874); test: Inhibition of human PARP1 using [3H]NAD as substrate after 1 min by microplate scintillation counting analysis
PARP 1, 2 and 3 = PARP 1, 2 and 3 (Homo sapiens, UniProt P09874+Q9Y6F1+Q9UGN5); test: Inhibition of PARP in human LoVo cells assessed as inhibition of poly(ADP)-ribose polymerization for 30 mins by fluorescence assay; assay type: cell-based
[36] = Cmax in beagle dog at 0.01 mg/kg, po; assay type: ADME, organism-based, Canis lupus familiaris; parameters: dose 0.01 mg/kg, route oral; details: in vivo
Canis familiaris [37] = test: AUC(0 to infinity) in beagle dog at 0.01 mg/kg, po; assay type: ADME, organism-based, Canis lupus familiaris; parameters: dose 0.01 mg/kg, time infinity, route oral; details: in vivo
[38] = AUC(0 to time) in beagle dog at 0.01 mg/kg, po; assay type: ADME, organism-based, Canis lupus familiaris; details: in vivo
[39] = Volume of distribution at steady state in beagle dog at 0.025 mg/kg, iv; assay type: ADME, organism-based, Canis lupus familiaris; details: in vivo, read-out: Vdss
Canis familiaris [40] = test: Clast in beagle dog at 0.025 mg/kg, iv; assay type: ADME, organism-based, Canis lupus familiaris; details: in vivo
[41] = Half life in beagle dog at 0.025 mg/kg, iv; assay type: ADME, organism-based, Canis lupus familiaris; details: in vivo
[42] = Cmax in beagle dog at 0.025 mg/kg, iv; assay type: ADME, organism-based, Canis lupus familiaris; parameters: dose 0.025 mg/kg, route intravenous; details: in vivo
Canis familiaris [43] = test: AUC(0 to infinity) in beagle dog at 0.025 mg/kg, iv; assay type: ADME, organism-based, Canis lupus familiaris; parameters: dose 0.025 mg/kg, time infinity, route intravenous; details: in vivo
[44] = AUC(0 to t) in beagle dog at 0.025 mg/kg, iv; assay type: ADME, organism-based, Canis lupus familiaris; details: in vivo
[45] = Tmax in beagle dog at 0.01 mg/kg, po; assay type: ADME, organism-based, Canis lupus familiaris; details: in vivo
[46] = Half life in beagle dog at 0.01 mg/kg, po; assay type: ADME, organism-based, Canis lupus familiaris; details: in vivo
Canis familiaris [47] = test: Clast in beagle dog at 0.01 mg/kg, po; assay type: ADME, organism-based, Canis lupus familiaris; details: in vivo
[48] = Apparent oral volume of distribution in beagle dog at 0.01 mg/kg, po; assay type: ADME, organism-based, Canis lupus familiaris; details: in vivo
Canis familiaris [49] = test: Absolute oral bioavailability in beagle dog at 0.01 mg/kg; assay type: ADME, organism-based, Canis lupus familiaris; details: in vivo
[50] = Clearance in beagle dog at 0.025 mg/kg, iv; assay type: ADME, organism-based, Canis lupus familiaris; details: in vivo

Voltage-gated inwardly rectifying potassium channel KCNH2, sequence (Q12809 whole entry): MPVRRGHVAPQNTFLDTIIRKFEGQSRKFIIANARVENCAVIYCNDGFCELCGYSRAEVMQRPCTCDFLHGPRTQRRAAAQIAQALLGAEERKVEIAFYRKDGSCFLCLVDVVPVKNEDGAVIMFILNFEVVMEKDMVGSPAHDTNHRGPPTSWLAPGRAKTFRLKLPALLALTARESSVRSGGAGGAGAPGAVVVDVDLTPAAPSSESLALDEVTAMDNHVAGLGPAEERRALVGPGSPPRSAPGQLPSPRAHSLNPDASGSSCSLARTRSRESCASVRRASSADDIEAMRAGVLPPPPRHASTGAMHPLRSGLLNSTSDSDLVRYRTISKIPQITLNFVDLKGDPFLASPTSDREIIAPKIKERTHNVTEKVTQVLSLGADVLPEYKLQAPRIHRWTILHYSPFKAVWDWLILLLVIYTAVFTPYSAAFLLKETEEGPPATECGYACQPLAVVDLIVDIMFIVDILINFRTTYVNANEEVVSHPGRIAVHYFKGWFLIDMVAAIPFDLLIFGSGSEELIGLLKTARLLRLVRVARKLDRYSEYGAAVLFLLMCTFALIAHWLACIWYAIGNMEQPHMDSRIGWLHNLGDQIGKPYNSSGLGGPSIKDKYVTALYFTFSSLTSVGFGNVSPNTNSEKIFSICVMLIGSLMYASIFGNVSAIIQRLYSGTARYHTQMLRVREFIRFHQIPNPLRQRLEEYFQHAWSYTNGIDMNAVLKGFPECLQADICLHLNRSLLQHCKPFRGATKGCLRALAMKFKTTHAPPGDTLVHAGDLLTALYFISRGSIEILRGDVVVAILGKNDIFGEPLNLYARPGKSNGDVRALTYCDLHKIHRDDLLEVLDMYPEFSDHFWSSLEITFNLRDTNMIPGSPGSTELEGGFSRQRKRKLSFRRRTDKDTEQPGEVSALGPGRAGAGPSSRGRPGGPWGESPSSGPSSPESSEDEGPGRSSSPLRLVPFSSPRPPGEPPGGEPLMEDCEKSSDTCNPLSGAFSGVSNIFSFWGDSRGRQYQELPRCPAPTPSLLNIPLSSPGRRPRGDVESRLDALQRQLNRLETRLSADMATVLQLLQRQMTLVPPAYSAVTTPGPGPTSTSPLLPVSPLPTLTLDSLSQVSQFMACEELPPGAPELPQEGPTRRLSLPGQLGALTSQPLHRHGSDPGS
CYP2C19, sequence (P33261 whole entry): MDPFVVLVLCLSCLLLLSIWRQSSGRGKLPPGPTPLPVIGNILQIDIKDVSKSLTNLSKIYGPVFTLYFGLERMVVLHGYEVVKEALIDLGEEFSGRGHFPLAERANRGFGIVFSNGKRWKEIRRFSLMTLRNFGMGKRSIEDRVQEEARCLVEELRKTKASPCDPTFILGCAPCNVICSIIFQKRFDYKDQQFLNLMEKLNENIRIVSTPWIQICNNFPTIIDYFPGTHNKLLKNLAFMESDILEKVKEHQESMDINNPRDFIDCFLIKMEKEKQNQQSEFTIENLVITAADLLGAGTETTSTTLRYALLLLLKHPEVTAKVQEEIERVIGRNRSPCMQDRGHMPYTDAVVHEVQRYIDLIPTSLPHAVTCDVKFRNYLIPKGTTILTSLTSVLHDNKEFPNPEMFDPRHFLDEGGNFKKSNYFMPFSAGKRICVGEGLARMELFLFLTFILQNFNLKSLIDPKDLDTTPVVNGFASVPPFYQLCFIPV
CYP2D6, sequence (P10635 whole entry): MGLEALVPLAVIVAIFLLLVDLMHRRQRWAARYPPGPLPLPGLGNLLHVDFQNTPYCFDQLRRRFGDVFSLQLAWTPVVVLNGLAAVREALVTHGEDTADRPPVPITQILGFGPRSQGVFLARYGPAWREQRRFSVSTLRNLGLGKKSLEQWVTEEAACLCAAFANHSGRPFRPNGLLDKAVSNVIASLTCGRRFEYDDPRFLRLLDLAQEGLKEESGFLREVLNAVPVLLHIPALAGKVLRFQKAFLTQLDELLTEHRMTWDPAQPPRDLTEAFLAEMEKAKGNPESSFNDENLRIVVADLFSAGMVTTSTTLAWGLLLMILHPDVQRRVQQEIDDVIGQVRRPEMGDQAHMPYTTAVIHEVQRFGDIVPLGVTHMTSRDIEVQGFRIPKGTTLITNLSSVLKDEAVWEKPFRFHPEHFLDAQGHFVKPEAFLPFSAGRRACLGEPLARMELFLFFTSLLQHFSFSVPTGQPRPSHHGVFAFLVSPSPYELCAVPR
CYP2C9, sequence (P11712 whole entry): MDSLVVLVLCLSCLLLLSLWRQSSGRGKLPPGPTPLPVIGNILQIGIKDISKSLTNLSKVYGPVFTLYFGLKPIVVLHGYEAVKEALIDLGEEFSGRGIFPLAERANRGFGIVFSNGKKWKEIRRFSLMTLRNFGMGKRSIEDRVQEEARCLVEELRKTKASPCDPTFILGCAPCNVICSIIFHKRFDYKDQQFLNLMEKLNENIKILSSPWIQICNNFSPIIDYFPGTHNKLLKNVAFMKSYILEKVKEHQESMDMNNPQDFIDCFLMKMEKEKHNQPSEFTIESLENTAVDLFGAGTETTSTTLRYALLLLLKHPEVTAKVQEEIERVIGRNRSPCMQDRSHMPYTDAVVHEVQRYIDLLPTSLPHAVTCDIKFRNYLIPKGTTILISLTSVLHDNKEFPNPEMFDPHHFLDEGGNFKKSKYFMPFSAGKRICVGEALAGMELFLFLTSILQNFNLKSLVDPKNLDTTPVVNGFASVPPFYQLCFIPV
CYP3A4, sequence (P08684 whole entry): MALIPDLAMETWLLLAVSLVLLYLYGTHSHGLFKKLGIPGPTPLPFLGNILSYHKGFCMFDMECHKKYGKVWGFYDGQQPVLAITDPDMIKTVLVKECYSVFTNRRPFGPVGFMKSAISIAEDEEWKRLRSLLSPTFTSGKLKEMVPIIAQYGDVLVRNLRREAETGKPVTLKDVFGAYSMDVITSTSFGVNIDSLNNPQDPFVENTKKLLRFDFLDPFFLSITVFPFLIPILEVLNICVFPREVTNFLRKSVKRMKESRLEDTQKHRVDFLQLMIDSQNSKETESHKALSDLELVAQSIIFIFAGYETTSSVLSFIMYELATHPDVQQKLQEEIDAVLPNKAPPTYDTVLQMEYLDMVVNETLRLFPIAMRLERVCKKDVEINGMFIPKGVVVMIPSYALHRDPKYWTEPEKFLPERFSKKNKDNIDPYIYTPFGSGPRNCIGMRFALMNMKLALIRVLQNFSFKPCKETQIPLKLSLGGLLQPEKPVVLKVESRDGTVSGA
Poly [ADP-ribose] polymerase 1, sequence (P09874 whole entry): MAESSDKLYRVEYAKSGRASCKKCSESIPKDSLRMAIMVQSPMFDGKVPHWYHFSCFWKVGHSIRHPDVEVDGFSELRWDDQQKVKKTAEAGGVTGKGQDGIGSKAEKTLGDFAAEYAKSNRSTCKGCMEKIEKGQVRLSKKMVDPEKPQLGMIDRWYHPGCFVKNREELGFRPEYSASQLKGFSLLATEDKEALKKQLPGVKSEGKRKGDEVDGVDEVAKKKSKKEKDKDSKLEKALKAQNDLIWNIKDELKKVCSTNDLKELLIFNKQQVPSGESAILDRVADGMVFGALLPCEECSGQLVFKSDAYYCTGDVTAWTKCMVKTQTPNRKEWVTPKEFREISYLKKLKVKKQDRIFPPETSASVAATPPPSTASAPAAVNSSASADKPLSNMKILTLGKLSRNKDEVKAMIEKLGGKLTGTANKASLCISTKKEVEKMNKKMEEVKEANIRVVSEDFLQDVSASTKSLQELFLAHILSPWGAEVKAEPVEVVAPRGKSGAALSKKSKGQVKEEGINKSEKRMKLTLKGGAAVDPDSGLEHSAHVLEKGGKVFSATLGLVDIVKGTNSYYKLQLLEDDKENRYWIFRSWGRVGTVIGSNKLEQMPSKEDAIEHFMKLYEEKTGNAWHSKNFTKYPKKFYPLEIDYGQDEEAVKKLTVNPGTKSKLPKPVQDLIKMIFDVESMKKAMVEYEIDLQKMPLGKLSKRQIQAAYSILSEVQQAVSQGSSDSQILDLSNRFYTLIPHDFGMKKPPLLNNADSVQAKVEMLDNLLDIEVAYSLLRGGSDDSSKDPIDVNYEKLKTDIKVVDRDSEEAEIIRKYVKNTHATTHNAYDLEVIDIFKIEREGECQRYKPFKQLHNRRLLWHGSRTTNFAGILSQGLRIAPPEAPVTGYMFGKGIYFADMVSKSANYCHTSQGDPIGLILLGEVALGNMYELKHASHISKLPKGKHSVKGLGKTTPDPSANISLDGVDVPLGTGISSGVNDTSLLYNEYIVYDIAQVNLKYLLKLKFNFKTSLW

Compound: Cn1ncnc1[C@H]1c2n[nH]c(=O)c3cc(F)cc(c23)N[C@@H]1c1ccc(F)cc1
inhibition (Mus musculus [1]): Active
inhibition (Mus musculus [2]): inactive
Activity (MX1 [3]): Active
Activity (MX1 [4]): inactive
Activity (MX1 [5]): Active
Activity (MX1 [6]): Dose-dependent effect
Activity (MX1 [7]): Active

Compound: Cn1ncnc1[C@H]1c2n[nH]c(=O)c3cc(F)cc(c23)N[C@@H]1c1ccc(F)cc1 [TALAZOPARIB]
bioavailability [8]: 56%
AUC [9]: 56100 ng·h/mL
Cmax [10]: 7950 ng/mL
Vd [11]: 0.3 L/kg
clearance [12]: 2 mL/min/kg
beta t1/2 (Rattus norvegicus [13]): 2.25 h
inhibition at 10 µM (CYP2C19): < 12%
IC50 [14]: > 100000 nM
fraction unbound [15]: 0.213
inhibition at 10 µM (CYP2C9): < 12%
inhibition at 10 µM (CYP2D6): < 12%
inhibition at 10 µM (CYP3A4): < 12%
inhibition at 10 µM (CYP1A2): < 12%
Activity (Salmonella typhimurium): Non-toxic
half-life [16]: 17.9 h
EC50 [17]: 5 nM
EC50 (MRC5): 310 nM
AUC(0-t) [18]: 619 ng·h/mL
AUC(0-inf) [19]: 629 ng·h/mL
Cmax [20]: 72.2 ng/mL
Tmax [21]: 2 h
Clast (Canis familiaris [22]): 0.365 ng/mL
CL/F [23]: 2.7 mL/min/kg
bioavailability [24]: 121%
half-life [25]: 40 h
Activity (Mus musculus [26]): Non-toxic
Activity (Mus musculus [27]): Non-toxic
GI50 (LoVo [28]): 4 nM

bioavailability [8]: 11%
AUC [9]: 559 ng·h/mL
Cmax [10]: 437 ng/mL
Vd [11]: 0.83 L/kg
clearance [12]: 34.3 mL/min/kg
half-life [29]: 0.53 h
GI50 (LoVo [32]): 237 nM
Compound: O=C(c1cc(Cc2n[nH]c(=O)c3ccccc23)ccc1F)N1CCN(C(=O)C2CC2)CC1 [OLAPARIB]
EC50 [17]: 259 nM
EC50 (MRC5): 5830 nM
inhibition (Mus musculus [30]): Active
Activity (MX1 [31]): inactive

F (Rattus norvegicus [33]): 68%
AUC (Rattus norvegicus [34]): 1810 ng·h/mL
Cmax [10]: 3990 ng/mL
Vd [11]: 0.73 L/kg
half-life [29]: 2.1 h
IC50 [35]: 1.6 nM
EC50 (PARP 1, 2 and 3): 17.9 nM
GI50 (LoVo [28]): 25 nM
Compound: Cn1ccnc1[C@H]1c2n[nH]c(=O)c3cc(F)cc(c23)N[C@@H]1c1ccc(F)cc1
EC50 [17]: 39 nM

Compound: Cc1ccc(S(=O)(=O)O)cc1.Cn1ncnc1[C@H]1c2n[nH]c(=O)c3cc(F)cc(c23)N[C@@H]1c1ccc(F)cc1 [TALAZOPARIB TOSYLATE]
Cmax [36]: 68 ng/mL
AUC (Canis familiaris [37]): 611 ng·h/mL
AUC [38]: 600 ng·h/mL
Vd [39]: 4.67 L/kg
Clast (Canis familiaris [40]): 0.182 ng/mL
half-life [41]: 26.7 h
Cmax [42]: 18.9 ng/mL
AUC (Canis familiaris [43]): 135 ng·h/mL
AUC(0-t) [44]: 129 ng·h/mL
Tmax [45]: 4 h
half-life [46]: 24.4 h
Clast (Canis familiaris [47]): 0.313 ng/mL
Vd/F [48]: 5.81 L/kg
F (Canis familiaris [49]): 118.7%
clearance [50]: 3.3 mL/min/kg
